Test results published in patent US20020065259A1, “Glucocorticoid blocking agents for increasing blood-brain barrier permeability” (priority 2000, published 2002).
Where two headings read alike, the source gives them in different places.

Tests used:
BBB permeability [1] = test: Example 2: mifepristone pellet in rats, brain haloperidol and clozapine levels and brain dopamine metabolites; type: in vivo
Description: Rats (male Sprague Dawley 175-200 grams) are maintained, 3 rats per cage, under controlled temperature and lighting (12 hours light/12 hours dark) with food and water ad libitum. […] Two hours prior to sacrifice the animals are injected with either haloperidol (1 mg/kg s.c; RBI Natick, Mass.) or an equivalent volume of vehicle (0.3% tartaric acid, pH 5.3) or with either clozapine (15 mg/kg s.c.; RBI, Natick, Mass.) or vehicle (0.9% saline plus 0.8% acetic acid). Animal sacrifice is by decapitation during the first four hours of the light cycle. Blood is collected and brains removed and frozen on dry ice for storage at −80° C. Frozen brains are sliced into 250 μm sections with a cryostat. The medial prefrontal cortex (AP 13.7 to 12.2 mm) is dissected with a scalpel, the striatum (AP 10.7 to 9.7 mm) is removed with stainless steel cannulae from frozen slices and the core and shell of the nucleus accumbens (AP 10.7 to 9.7 mm) is removed. Brain regions are dissected within 24-72 hours of slicing. […] Dopamine metabolites homovanillic acid (HVA) and dihydroxyphenylacetic acid (DOPAC) are measured in the brains of the experimental animals. […] Tissue pellets are dissolved in 1.0 N NaOH for protein determination (BioRad, Richmond, Calif.). Cortical supernatants are filtered through a 0.45 μm filter and 5-80 μl of supernatant is injected directly onto a C18 reverse phase analytical column (5 μm, 250×4.6 mm; Biophase ODS, BAS, West Lafayette, Ind.) protected by a precolumn cartridge (5 μm, 30×4.6 mm, BAS) as described with modification (Lindley et al. Proc. Soc. Exp. Biol. Med. 188:282-286 (1988)). DOPAC and HVA were detected using an electrochemical detector. For cortical regions, the conditioning electrode is set at +0.35 V and the dual analytical electrode is set at +0.02 V and −0.35 V, respectively (ESA, Bedford, Mass.). For other regions a single analytical electrode set at +0.72 V is used (BAS, West Lafayette, Ind.). Brain clozapine levels are analyzed by National Medical Services, Inc. (Willow Grove, PN) while brain and plasma haloperidol and reduced haloperidol and plasma clozapine levels are analyzed by Analytical Psychopharmacology Laboratories (Nathan Kline Institute, Orangeburg, N.Y.), both by gas chromatography.

BBB permeability [2] = conditions: adrenalectomized rats with vehicle (placebo) pellets; haloperidol 1 mg/kg s.c. or clozapine 15 mg/kg s.c., 2 h before sacrifice
BBB permeability [3] = test: Example 4: mifepristone pellet in rats, delivery of ampicillin to brain; type: in vivo; conditions: mifepristone 200 mg 10-day sustained release pellet, ampicillin 1.5 mg i.v. 2 h before sacrifice
Description: Animal sacrifice is by decapitation during the first four hours of the light cycle. Blood is collected and brains removed and frozen on dry ice for storage at −80° C. Ampicillin concentration is measured in the brains of the experimental animals.

BBB permeability [4] = test: Example 6: mifepristone s.c. injection in rats, delivery of adriamycin to brain; type: in vivo; conditions: mifepristone 2 mg s.c. 4 h before sacrifice, adriamycin 0.5 mg i.v. 2 h before sacrifice
Description: Animal sacrifice is by decapitation during the first four hours of the light cycle. Blood is collected and brains removed and frozen on dry ice for storage at −80° C. Adriamycin concentration is measured in the brains of the experimental animals.

BBB permeability [5] = test: Example 5: mifepristone pellet in rats, delivery of methotrexate to brain; type: in vivo; conditions: mifepristone 200 mg 10 day sustained-release pellet, methotrexate 0.5 mg i.v. 2 h before sacrifice
Description: Rats (male Sprague Dawley 175-200 grams) are maintained, 3 rats per cage, under controlled temperature and lighting (12 hours light/12 hours dark) with food and water ad libitum. […] Two hours prior to sacrifice the animals are injected with either methotrexate (0.5 mg i.v; Sigma Chemical Co., (800)325-3010) or an equivalent volume of vehicle (saline, pH 9). Animal sacrifice is by decapitation during the first four hours of the light cycle. Blood is collected and brains removed and frozen on dry ice for storage at −80° C. Methotrexate concentration is measured in the brains of the experimental animals. The methotrexate concentration is greater in the brains of mifepristone-treated animals than in placebo-treated animals.

BBB permeability [6] = test: Example 3: mifepristone pellet in rats, delivery of Amphotericin B to brain; type: in vivo; conditions: mifepristone 200 mg 10-day sustained release pellet, Amphotericin B 0.1 mg i.v. 2 h before sacrifice
Description: Rats (male Sprague Dawley 175-200 grams) are maintained, 3 rats per cage, under controlled temperature and lighting (12 hours light/12 hours dark) with food and water ad libitum. […] Two hours prior to sacrifice the animals are injected with either Amphotericin B (0.1 mg i.v.; Sigma Chemical Co., (800) 325-3010) or an equivalent volume of vehicle (0.1% DMSO in saline, pH 11). Animal sacrifice is by decapitation during the first four hours of the light cycle. Blood is collected and brains removed and frozen on dry ice for storage at −80° C. Amphotericin B concentration is measured in the brains of the experimental animals. The Amphotericin B concentration is greater in the brains of mifepristone-treated animals than in placebo-treated animals.

[7] = rats, mifepristone 200 mg 10-day sustained-release pellet, clozapine 15 mg/kg s.c.
[8] = rats, mifepristone 200 mg 10-day sustained-release pellet, haloperidol 1 mg/kg s.c.

Row | Structure (SMILES) | measured levels of HVA and DOPAC in the brain (BBB permeability [1]; rats with placebo pellet, haloperidol 1 mg/kg s.c. or clozapine 15 mg/kg s.c., 2 h before sacrifice) | measured levels of HVA and DOPAC in the brain (BBB permeability [2]) | ampicillin concentration in the brain, mifepristone-treated vs placebo (BBB permeability [3]) | brain concentration of clozapine, mifepristone-treated vs placebo (BBB permeability [1]; [7]) | increase in dopamine metabolite levels following clozapine treatment, mifepristone-treated vs placebo (BBB permeability [1]; [7]) | brain concentration of haloperidol, mifepristone-treated vs placebo (BBB permeability [1]; [8]) | increase in dopamine metabolite levels following haloperidol treatment, mifepristone-treated vs placebo (BBB permeability [1]; [8]) | adriamycin concentration in the brain, mifepristone-treated vs placebo (BBB permeability [4]) | methotrexate concentration in the brain, mifepristone-treated vs placebo (BBB permeability [5]) | Amphotericin B concentration in the brain, mifepristone-treated vs placebo (BBB permeability [6])
1 | O=C(CCCN1CCC(O)(c2ccc(Cl)cc2)CC1)c1ccc(F)cc1 [haloperidol] | elevated | elevated | – | – | – | – | – | – | – | –
2 | CC#C[C@]1(O)CC[C@H]2[C@@H]3CCC4=CC(=O)CCC4=C3[C@@H](c3ccc(N(C)C)cc3)C[C@@]21C [mifepristone, (11β,17β)-11-[4-(dimethylamino)phenyl]-17-hydroxy-17-(1-propynyl)estra-4,9-dien-3-one] | – | – | greater | greater | greater | greater | greater | greater | greater | greater
